# Reference: US20220175766A1, “COMPOSITIONS AND METHODS OF TREATMENT” (GB004, Inc., priority 2019, published 2022)
# Like-named read-outs stand apart in the source and are kept apart here.
# Experiment: Phase 1a multiple ascending dose study (oral solution): plasma pharmacokinetics
# Format: in vivo, human
# Settings: for concentration at 0.5 h: Hour 0.5; for concentration at 0.5 h / concentration at 1 h / concentration at 2 h / concentration at 3 h / concentration at 4 h / concentration at 6 h / concentration at 8 h / concentration at 12 h / concentration at 16 h / concentration at 24 h: read-out: Compound 1 concentration, Conc (SD); for concentration at 1 h: Hour 1; for concentration at 2 h: Hour 2; for concentration at 3 h: Hour 3; for concentration at 4 h: Hour 4; for concentration at 6 h: Hour 6; for concentration at 8 h: Hour 8; for concentration at 12 h: Hour 12; for concentration at 16 h: Hour 16; for concentration at 24 h: Hour 24
# Protocol: Compound 1 was administered as the HCl-salt (prepared analogously to Example 2.1).
# The secondary objective was to characterize the multiple dose pharmacokinetic (PK) parameters of Compound 1, after ascending doses. Secondary endpoints included determination of PK parameters in plasma and urine, fecal excretion and assessment of colonic biopsy samples.
# Blood samples were collected at the following time points relative to dose administration on Day 1 and Day 7: pre-dose; 0.5, 1, 2, 3, 4, 6, 8, 12, 16 and 24 hours post dose. Analysis and concentration determinations were performed using a liquid chromatography-mass spectrometry and liquid chromatography-tandem mass spectrometry (LC/MS/MS) method.
# [1] = Cohort 1, 60 mg once daily, Day 7
# [2] = Cohort 2, 120 mg once daily, Day 7
# [3] = Cohort 3, 240 mg once daily, Day 7
# [4] = Cohort 4, 120 mg once daily, Day 7
# [5] = Cohort 5, 60 mg once daily, Day 7
# [6] = human, plasma, oral, 60 mg, Cohort 1, 60 mg once daily, Day 7
# [7] = human, plasma, oral, 60 mg, Cohort 1, 60 mg, Day 1
# [8] = human, plasma, oral, 60 mg, Cohort 5, 60 mg once daily, Day 7
# [9] = human, plasma, oral, 60 mg, Cohort 5, 60 mg, Day 1
# [10] = human, plasma, oral, 120 mg, Cohort 2, 120 mg once daily, Day 7
# [11] = human, plasma, oral, 120 mg, Cohort 2, 120 mg, Day 1
smiles,measurement,setting,value
"CC(C)(C)OC(=O)N1CCN(Cc2ccn(Cc3ccc(Cl)cc3)c(=O)c2O)CC1 [Compound 1, tert-butyl 4-((1-(4-chlorobenzyl)-3-hydroxy-2-oxo-1,2-dihydropyridin-4-yl)methyl)piperazine-1-carboxylate]","ARAUC (accumulation ratio of AUC), mean",[1],2.1
same,"ARCmax (accumulation ratio of Cmax), mean",[1],1.0
same,"Tmax, median (range)","Cohort 1, 60 mg, Day 1",0.5 (0.5-1.0) h
same,"ARAUC (accumulation ratio of AUC), mean",[2],1.8
same,"ARCmax (accumulation ratio of Cmax), mean",[2],1.2
same,"ARAUC (accumulation ratio of AUC), mean",[3],1.4
same,"ARCmax (accumulation ratio of Cmax), mean",[3],1.0
same,"ARAUC (accumulation ratio of AUC), mean",[4],2.3
same,"ARCmax (accumulation ratio of Cmax), mean",[4],1.3
same,"Tmax, median (range)","Cohort 4, 120 mg, Day 1",0.5 (0.5-1.0) h
same,"ARAUC (accumulation ratio of AUC), mean",[5],3.0
same,"ARCmax (accumulation ratio of Cmax), mean",[5],1.3
same,concentration at 0.5 h,[6],4.33 ng/mL
same,concentration at 1 h,[6],3.02 ng/mL
same,concentration at 2 h,[6],1.85 ng/mL
same,concentration at 3 h,[6],0 ng/mL
same,concentration at 4 h,[6],0 ng/mL
same,concentration at 6 h,[6],0 ng/mL
same,concentration at 8 h,[6],0 ng/mL
same,concentration at 12 h,[6],0 ng/mL
same,concentration at 16 h,[6],0 ng/mL
same,concentration at 24 h,[6],0 ng/mL
same,AUC(0-t),"human, plasma, oral, 60 mg, Cohort 1, 60 mg once daily, Day 7, read-out: AUC(0-t), mean",17 ng·h/mL
same,Cmax,"human, plasma, oral, 60 mg, Cohort 1, 60 mg once daily, Day 7, read-out: Cmax, mean",4.33 ng/mL
same,concentration at 0.5 h,[7],3.88 ng/mL
same,concentration at 1 h,[7],3.16 ng/mL
same,concentration at 4 h,[7],0 ng/mL
same,concentration at 6 h,[7],0 ng/mL
same,concentration at 8 h,[7],0 ng/mL
same,concentration at 12 h,[7],0 ng/mL
same,concentration at 16 h,[7],0 ng/mL
same,concentration at 24 h,[7],0 ng/mL
same,AUC(0-t),"human, plasma, oral, 60 mg, Cohort 1, 60 mg, Day 1, read-out: AUC(0-τ) column, AUClast is presented (footnote b), mean (SD)",5.32 ng·h/mL
same,Cmax,"human, plasma, oral, 60 mg, Cohort 1, 60 mg, Day 1, read-out: Cmax, mean (SD)",4.11 ng/mL
same,concentration at 0.5 h,[8],6.24 ng/mL
same,concentration at 1 h,[8],4.6 ng/mL
same,concentration at 2 h,[8],2.57 ng/mL
same,concentration at 3 h,[8],1.99 ng/mL
same,concentration at 4 h,[8],1.62 ng/mL
same,concentration at 6 h,[8],2.15 ng/mL
same,concentration at 8 h,[8],2 ng/mL
same,concentration at 12 h,[8],1.7 ng/mL
same,concentration at 16 h,[8],1.59 ng/mL
same,concentration at 24 h,[8],1.18 ng/mL
same,AUC(0-t),"human, plasma, oral, 60 mg, Cohort 5, 60 mg once daily, Day 7, read-out: AUC(0-t), mean",53.2 ng·h/mL
same,Cmax,"human, plasma, oral, 60 mg, Cohort 5, 60 mg once daily, Day 7, read-out: Cmax, mean",6.31 ng/mL
same,concentration at 0.5 h,[9],4.83 ng/mL
same,concentration at 1 h,[9],3.94 ng/mL
same,concentration at 3 h,[9],0 ng/mL
same,concentration at 4 h,[9],0 ng/mL
same,concentration at 6 h,[9],0 ng/mL
same,concentration at 8 h,[9],0 ng/mL
same,concentration at 12 h,[9],0 ng/mL
same,concentration at 16 h,[9],0 ng/mL
same,concentration at 24 h,[9],0 ng/mL
same,AUC,"human, plasma, oral, 60 mg, Cohort 5, 60 mg, Day 1, read-out: AUC(0-τ), mean (SD)",28.7 ng·h/mL
same,Cmax,"human, plasma, oral, 60 mg, Cohort 5, 60 mg, Day 1, read-out: Cmax, mean (SD)",5.06 ng/mL
same,concentration at 0.5 h,[10],11.1 ng/mL
same,concentration at 1 h,[10],7.7 ng/mL
same,concentration at 2 h,[10],4.5 ng/mL
same,concentration at 3 h,[10],3.19 ng/mL
same,concentration at 4 h,[10],1.6 ng/mL
same,concentration at 6 h,[10],2.04 ng/mL
same,concentration at 8 h,[10],2.26 ng/mL
same,concentration at 12 h,[10],1.41 ng/mL
same,concentration at 16 h,[10],1.39 ng/mL
same,concentration at 24 h,[10],0 ng/mL
same,AUC(0-t),"human, plasma, oral, 120 mg, Cohort 2, 120 mg once daily, Day 7, read-out: AUC(0-t), mean",48.2 ng·h/mL
same,Cmax,"human, plasma, oral, 120 mg, Cohort 2, 120 mg once daily, Day 7, read-out: Cmax, mean",11.4 ng/mL
same,concentration at 0.5 h,[11],9.54 ng/mL
same,concentration at 1 h,[11],6.08 ng/mL
same,concentration at 3 h,[11],1.95 ng/mL
same,concentration at 4 h,[11],0 ng/mL
same,concentration at 6 h,[11],0 ng/mL
